In patent publication US4061767A, “Cyano acetic acid anilide derivatives, process for their manufacture and compositions containing these compounds” (Hoechst Aktiengesellschaft, priority 1975, dated 1977):

Assays:
[1] = in vivo; settings: rat, po, per os, observation time 7 days
Excerpt: ^1) Limits of confidence for p = 0.05 in brackets
^2) Sprague-Dawley rats used as test animals

[2] = in vivo; design: species or system male rats of a Sprague-Dawley strain; settings: rat, po
Experimental: To examine the ulcerogenic activity, the substances to be tested were orally administered to male rats of a Sprague-Dawley strain, that had been kept unfed for 18 hours, and 24 hours after administration, the gastrointestinal tract of the animals was inspected for ulcers.

[3] = tested on: adjuvant arthritis; assay: adjuvant arthritis in rats (anti-inflammatory effect); assay type: in vivo; settings: Rattus norvegicus, po, 408 h, per os, 50% reduction of secondary lesions on the 17th day vs control
Experimental: (§1) The ED50 levels were determined graphically on probability paper. In the writhing test, the ED50 is defined to be the dosis of active ingredient that reduces the number of writhings by 50% as compared with a control group. In the adjuvant arthritis test, the effect was judged by observing the inhibition in the secondary lesions, which the animals inflicted to their ears, paws and tails, on the 17th day after the administration of the active substance compositions had started, in comparison with a control group. ED50 is considered the dosis that reduces these lesions by 50% as compared to those of the control group.

[4] = tested on: writhing; assay: writhing test on mice (analgesic effect); assay type: in vivo; settings: Mus musculus, po, per os, dosis that reduces the number of writhings by 50% vs control
Experimental: as §1

[5] = in vivo; settings: mouse, po, per os, N.M.R.I. mice, observation time 7 days

| SMILES | LD50 at 168 h ([1]; female Wistar-Lewis rats) | NOAEL at 24 h [2] | ED50 [3] | ED50 [4] | LD50 at 168 h [5] | LD50 at 168 h ([1]; Sprague-Dawley rats used as test animals (footnote 2)) |
| --- | --- | --- | --- | --- | --- | --- |
| CC(O)=C(C#N)C(=O)Nc1cccc(Cl)c1 [No. 2] | 445 mg/kg | 200 mg/kg | 22 mg/kg | ~25 mg/kg | 585 mg/kg |  |
| CCCCC1C(=O)N(c2ccccc2)N(c2ccccc2)C1=O [Phenylbutazone, phenylbutazone, reference compound] |  | 63 mg/kg | 37 mg/kg | 60 to 100 mg/kg |  |  |
| CC(O)=C(C#N)C(=O)Nc1cccc(C(F)(F)F)c1 [compound 11] |  | 100 mg/kg | 28 mg/kg | 25 mg/kg | 660 mg/kg | 670 mg/kg |
